Assay results: PMC9870890 (Nature Communications, 2023)
Positions count from the first letter of the chain named. Several values for one entry are separate records, joined by “and”; a condition that tells them apart may be missing. Equal values may be shown once.

Key:
M2R and GoA = target: T1, M2R and GoA (Homo sapiens, UniProt P08172); experiment: GTPase-Glo assay (GTP turnover) with purified M2R and GoA; type: biochemical; settings: for Residual GTP (%): 90 min, normalized to GoA alone; for GTP-turnover, Fig. 1c (GTPase-Glo luminescence): 100 μM ACh or 10 μM Ixo, M2R-GoA
T1 construct: FLAG (N); 8xHis (C); made in house; host or cells: Sf9 insect cells (receptor)
T1 sequence (P59768 2-68, one chain of several): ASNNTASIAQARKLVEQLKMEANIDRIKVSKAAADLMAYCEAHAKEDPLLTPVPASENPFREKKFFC
T1 sequence (P09471 2-354, one chain of several, further chain): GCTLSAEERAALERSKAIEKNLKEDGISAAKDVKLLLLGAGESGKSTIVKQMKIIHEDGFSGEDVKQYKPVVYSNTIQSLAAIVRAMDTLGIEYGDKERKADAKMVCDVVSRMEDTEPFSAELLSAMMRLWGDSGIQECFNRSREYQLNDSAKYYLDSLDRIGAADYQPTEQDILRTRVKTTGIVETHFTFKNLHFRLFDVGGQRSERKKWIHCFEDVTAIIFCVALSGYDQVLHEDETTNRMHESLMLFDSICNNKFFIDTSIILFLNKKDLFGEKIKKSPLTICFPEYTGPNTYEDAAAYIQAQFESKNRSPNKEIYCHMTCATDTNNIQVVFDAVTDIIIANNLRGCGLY
T1 sequence (P62873 whole entry, one chain of several, further chain): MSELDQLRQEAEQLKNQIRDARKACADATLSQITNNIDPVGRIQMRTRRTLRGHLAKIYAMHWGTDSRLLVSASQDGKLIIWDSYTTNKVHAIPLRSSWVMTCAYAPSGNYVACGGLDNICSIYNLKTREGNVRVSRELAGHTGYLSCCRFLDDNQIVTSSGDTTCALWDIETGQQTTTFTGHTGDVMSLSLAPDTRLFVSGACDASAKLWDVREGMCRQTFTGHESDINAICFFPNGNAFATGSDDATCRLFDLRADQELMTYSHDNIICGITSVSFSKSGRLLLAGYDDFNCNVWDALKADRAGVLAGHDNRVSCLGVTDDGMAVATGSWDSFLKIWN
Method: The receptors for GTPase-Glo^TM assay were expressed and purified as described above and frozen at −80 °C before use. […] The GTPase reaction was incubated at room temperature (22–25 °C) for different times (15–90 min). […] After incubation, 5 μL reconstituted 1xGTPase-Glo^TM Reagent (Promega) was added to the completed GTPase reaction, mixed briefly and incubated with shaking for 30 min at room temperature (22–25 °C) to convert the remaining GTP into ATP. Then 10 μL Detection Reagent (Promega) was added to the system and incubated for 5-10 min at room temperature (22–25 °C) to convert the ATP into luminescent signals. Luminescence intensity was quantified using a Multimode Plate Reader (PerkinElmer) luminescence counter.

human, wild-type M2R = target: T2, human, wild-type M2R (Homo sapiens, UniProt P08172); experiment: NanoBiT-G-protein (GoA) dissociation assay, wild-type M2R, HEK293A cells; type: cell-based; settings: for NanoBiT-GoA dissociation signal, Mean (Veh = 1.000): n = 4
T2 construct: expressed in transfected cells; host or cells: HEK293A
T2 sequence (P08172 1-466): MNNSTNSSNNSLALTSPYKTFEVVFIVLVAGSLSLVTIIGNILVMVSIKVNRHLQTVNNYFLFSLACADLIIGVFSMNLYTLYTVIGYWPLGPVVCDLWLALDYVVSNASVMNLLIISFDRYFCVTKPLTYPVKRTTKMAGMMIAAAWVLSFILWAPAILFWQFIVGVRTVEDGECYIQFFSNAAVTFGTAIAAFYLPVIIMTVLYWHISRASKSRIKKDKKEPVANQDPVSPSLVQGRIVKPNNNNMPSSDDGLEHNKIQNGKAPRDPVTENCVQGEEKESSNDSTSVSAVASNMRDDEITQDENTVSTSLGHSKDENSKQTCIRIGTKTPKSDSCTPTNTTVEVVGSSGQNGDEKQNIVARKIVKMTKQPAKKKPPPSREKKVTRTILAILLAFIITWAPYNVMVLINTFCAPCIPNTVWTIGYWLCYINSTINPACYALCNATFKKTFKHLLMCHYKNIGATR
Method: Plasmid transfection for HEK293A cells (Thermo Fisher Scientific) was performed by combining 25 µl (volume is per 10-cm culture dish) of polyethylenimine solution (1 mg/mL) and a mixture of plasmids each encoding the large fragment (LgBiT)-containing the GαoA subunit (500 ng), the small fragment (SmBiT)-fused Gγ2 subunit with the C68S mutation (2.5 µg) and the untagged Gβ1 subunit (2.5 µg), along with a human, wild-type M2R (1 µg; containing N-terminal HA-derived signal sequence followed by the FLAG-epitope tag). After an incubation for one day, the transfected cells were harvested, pelleted with centrifugation, and suspended in 9 ml of Hank’s balanced saline solution (HBSS) containing 0.01% bovine serum albumin (BSA fatty acid–free grade, SERVA) and 5 mM HEPES (pH 7.4) (assay buffer). The cell suspension was dispensed in a white 96-well plate at a volume of 70 µl per well and mixed with 20 µl of 50 µM coelenterazine (Carbosynth) diluted in the assay buffer. After 2 h incubation at room temperature, the plate was measured for baseline luminescence (SpectraMax L, Molecular Devices) and 10 µl of titrated concentrations of LY2119620 diluted in the assay buffer were added. […] Kinetics data points from 5 min to 10 min were averaged and normalized to the initial count and used as a G-protein dissociation index. […] The G-protein dissociation signals were fitted to a four-parameter sigmoidal concentration-response curve (GraphPad Prism8). For each experiment, we calculated Emax by normalizing Span to the LY2119620-free condition and ∆pEC50 by subtracting pEC50 of the LY2119620-free condition performed in parallel and used the values to denote allosteric modulator activity.

Mock = experiment: NanoBiT-GoA dissociation assay, Mock-transfected cells (control); type: cell-based
M2R = target: T3, M2R (Homo sapiens, UniProt P08172); experiment: biochemical; type: binding; design: expressed in transfected cells
T3 sequence (P08172 1-466): T2 sequence (P08172 1-466)
Method: Purified M2R receptor was reconstituted into high-density lipoprotein (HDL) particles constituting apolipoprotein A1(APOA1) and mixture of POPG: POPC lipids with 3:2 (mol:mol)ratio as previously described. […] Membranes or HDL particles were separated from excess [^3H]-NMS by Whatman GF/B filters using a Brandel 48-well harvester. The bound radioligand were read on a liquid scintillation counter (MicroBeta Jet, PerkinElmer). Data were analyzed by GraphPad Prism 9.2.0.

M2R L129^34.51A mutant = target: T4, M2R L129^34.51A mutant (Homo sapiens, UniProt P08172, L129A); experiment: NanoBiT-GoA dissociation assay, L129A mutant M2R
T4 sequence (P08172 1-466 L129A): T2 sequence (P08172 1-466) with L129A
Method: Plasmid transfection for HEK293A cells (Thermo Fisher Scientific) was performed by combining 25 µl (volume is per 10-cm culture dish) of polyethylenimine solution (1 mg/mL) and a mixture of plasmids each encoding the large fragment (LgBiT)-containing the GαoA subunit (500 ng), the small fragment (SmBiT)-fused Gγ2 subunit with the C68S mutation (2.5 µg) and the untagged Gβ1 subunit (2.5 µg), along with a human, wild-type M2R (1 µg; containing N-terminal HA-derived signal sequence followed by the FLAG-epitope tag). After an incubation for one day, the transfected cells were harvested, pelleted with centrifugation, and suspended in 9 ml of Hank’s balanced saline solution (HBSS) containing 0.01% bovine serum albumin (BSA fatty acid–free grade, SERVA) and 5 mM HEPES (pH 7.4) (assay buffer). The cell suspension was dispensed in a white 96-well plate at a volume of 70 µl per well and mixed with 20 µl of 50 µM coelenterazine (Carbosynth) diluted in the assay buffer. […] Kinetics data points from 5 min to 10 min were averaged and normalized to the initial count and used as a G-protein dissociation index. For the mutant study, the cell culture and the transfection mixture were scaled down to a 6-cm dish (4 ml culture media) and the transfected cells were suspended in 4 ml of the assay buffer and seeded in the 96-well plate at a volume of 80 µL. The G-protein dissociation signals were fitted to a four-parameter sigmoidal concentration-response curve (GraphPad Prism8). For each experiment, we calculated Emax by normalizing Span to the LY2119620-free condition and ∆pEC50 by subtracting pEC50 of the LY2119620-free condition performed in parallel and used the values to denote allosteric modulator activity. Similarly, for the mutant study, we calculated ∆pEC50 by subtracting pEC50 of the WT (1:1) condition performed in parallel.

SMILES: CC(=O)OCC[N+](C)(C)C [ACh, acetylcholine]
- Residual GTP (%) (M2R and GoA; +DMSO): 45.3131% and 35.9349% and 31.3573% and 30.3217%
- Residual GTP (%) (M2R and GoA; +LY2119620 (100 μM)): 63.4937% and 52.5673% and 44.2408% and 50.614% and 40.1818%
- GTP turnover rate and efficacy (M2R and GoA; agonist-bound M2R): much lower GTP turnover rate and efficacy than Ixo-bound M2R
- GTP-turnover, Fig. 1c (GTPase-Glo luminescence) (M2R and GoA; time 15 min): 580068 and 653066 and 555333 and 703107
- GTP-turnover, Fig. 1c (GTPase-Glo luminescence) (M2R and GoA; time 30 min): 338018 and 388059 and 371258 and 437553
- GTP-turnover, Fig. 1c (GTPase-Glo luminescence) (M2R and GoA; time 45 min): 365372 and 350617 and 319511 and 370440
- GTP-turnover, Fig. 1c (GTPase-Glo luminescence) (M2R and GoA; time 60 min): 469821 and 332109 and 488525 and 361230
- GTP-turnover, Fig. 1c (GTPase-Glo luminescence) (M2R and GoA; time 90 min): 354237 and 250414 and 339305 and 252170
- ∆pEC50 (human, wild-type M2R; WT (1:1), reference): 0.000
- NanoBiT-GoA dissociation signal, Mean (Veh = 1.000) (human, wild-type M2R; WT (1:1), ACh Log [M] -4): 0.337
- NanoBiT-GoA dissociation signal, Mean (Veh = 1.000) (human, wild-type M2R; WT (1:1), ACh Log [M] -5): 0.351
- NanoBiT-GoA dissociation signal, Mean (Veh = 1.000) (human, wild-type M2R; WT (1:1), ACh Log [M] -6): 0.394
- NanoBiT-GoA dissociation signal, Mean (Veh = 1.000) (human, wild-type M2R; WT (1:1), ACh Log [M] -7): 0.558
- NanoBiT-GoA dissociation signal, Mean (Veh = 1.000) (human, wild-type M2R; WT (1:1), ACh Log [M] -8): 0.840
- NanoBiT-GoA dissociation signal, Mean (Veh = 1.000) (human, wild-type M2R; WT (1:1), ACh Log [M] -9): 0.978
- ∆pEC50 (human, wild-type M2R; WT (1:2)): -0.277 and -0.205 and -0.364 and -0.275
- NanoBiT-GoA dissociation signal, Mean (Veh = 1.000) (human, wild-type M2R; WT (1:2), ACh Log [M] -4): 0.345
- NanoBiT-GoA dissociation signal, Mean (Veh = 1.000) (human, wild-type M2R; WT (1:2), ACh Log [M] -5): 0.355
- NanoBiT-GoA dissociation signal, Mean (Veh = 1.000) (human, wild-type M2R; WT (1:2), ACh Log [M] -6): 0.427
- NanoBiT-GoA dissociation signal, Mean (Veh = 1.000) (human, wild-type M2R; WT (1:2), ACh Log [M] -7): 0.636
- NanoBiT-GoA dissociation signal, Mean (Veh = 1.000) (human, wild-type M2R; WT (1:2), ACh Log [M] -8): 0.898
- NanoBiT-GoA dissociation signal, Mean (Veh = 1.000) (human, wild-type M2R; WT (1:2), ACh Log [M] -9): 0.988
- NanoBiT-GoA dissociation signal, Mean (Veh = 1.000) (Mock; ACh Log [M] -4, n = 3): 0.999
- NanoBiT-GoA dissociation signal, Mean (Veh = 1.000) (Mock; ACh Log [M] -5, n = 3): 0.997
- NanoBiT-GoA dissociation signal, Mean (Veh = 1.000) (Mock; ACh Log [M] -6, n = 3): 0.997
- NanoBiT-GoA dissociation signal, Mean (Veh = 1.000) (Mock; ACh Log [M] -7, n = 3): 0.998
- NanoBiT-GoA dissociation signal, Mean (Veh = 1.000) (Mock; ACh Log [M] -8, n = 3): 1.007
- NanoBiT-GoA dissociation signal, Mean (Veh = 1.000) (Mock; ACh Log [M] -9, n = 3): 1.008
- NanoBiT-GoA dissociation signal, Mean (Veh = 1.000) (Mock; ACh Log [M] -10, n = 3): 1.011
- increase of affinity on addition of GoA (M2R; M2R in HDL particles): ~ 65 fold
- competition curve data, Fig. 1b ([3H]-NMS binding) (M2R; log[M] -4, without GoA): 5.782 and 5.65 and 7.077
- competition curve data, Fig. 1b ([3H]-NMS binding) (M2R; log[M] -5, +GoA): 8.6818 and 10.1951 and 7.089
- competition curve data, Fig. 1b ([3H]-NMS binding) (M2R; log[M] -5, without GoA): 30.6813 and 33.2587 and 33.4266
- competition curve data, Fig. 1b ([3H]-NMS binding) (M2R; log[M] -6, +GoA): 19.1734 and 19.6734 and 19.2354
- competition curve data, Fig. 1b ([3H]-NMS binding) (M2R; log[M] -6, without GoA): 75.6364 and 71.4046
- competition curve data, Fig. 1b ([3H]-NMS binding) (M2R; log[M] -7, +GoA): 35.8423 and 48.5862 and 43.4886
- competition curve data, Fig. 1b ([3H]-NMS binding) (M2R; log[M] -7, without GoA): 93.5585 and 94.8412 and 97.6703
- competition curve data, Fig. 1b ([3H]-NMS binding) (M2R; log[M] -8, +GoA): 63.401 and 72.72 and 79.9283
- competition curve data, Fig. 1b ([3H]-NMS binding) (M2R; log[M] -8, without GoA): 87.5165 and 90.6813 and 92.0839
- competition curve data, Fig. 1b ([3H]-NMS binding) (M2R; log[M] -9, +GoA): 85.6233 and 86.2605 and 91.0793
- competition curve data, Fig. 1b ([3H]-NMS binding) (M2R; log[M] -9, without GoA): 98.6534 and 93.3786 and 102.25
- competition curve data, Fig. 1b ([3H]-NMS binding) (M2R; log[M] -10, +GoA): 98.2875 and 107.686 and 94.0263
- competition curve data, Fig. 1b ([3H]-NMS binding) (M2R; log[M] -10, without GoA): 99.5165 and 100.667 and 99.8162
- binding affinity lower than Ixo (M2R; purified M2R reconstituted in HDL particles): ~ 90 fold
- ∆pEC50 (M2R L129^34.51A mutant): -0.530 and -0.558 and -0.440
- NanoBiT-GoA dissociation signal, Mean (Veh = 1.000) (M2R L129^34.51A mutant; ACh Log [M] -4, n = 3): 0.350
- NanoBiT-GoA dissociation signal, Mean (Veh = 1.000) (M2R L129^34.51A mutant; ACh Log [M] -5, n = 3): 0.368
- NanoBiT-GoA dissociation signal, Mean (Veh = 1.000) (M2R L129^34.51A mutant; ACh Log [M] -6, n = 3): 0.470
- NanoBiT-GoA dissociation signal, Mean (Veh = 1.000) (M2R L129^34.51A mutant; ACh Log [M] -8, n = 3): 0.926
- NanoBiT-GoA dissociation signal, Mean (Veh = 1.000) (M2R L129^34.51A mutant; ACh Log [M] -9, n = 3): 0.991
- NanoBiT-GoA dissociation signal, Mean (Veh = 1.000) (M2R L129^34.51A mutant; ACh Log [M] -10, n = 3): 0.994
